According to PubChem BioAssay AID1671275:

Target: Ephrin type-B receptor 3 (Homo sapiens) (UniProt P54753)
Test: inhibition of human ephrin receptor B3 activity – biochemical, Z'-LYTE, FRET, protease-coupled, direct format, dose response (AID 1671275)
Conditions: Z'-LYTE FRET kinase activity assay, recombinant EPHB3

Ephrin type-B receptor 3 (Homo sapiens), sequence (P54753 whole entry, looked up): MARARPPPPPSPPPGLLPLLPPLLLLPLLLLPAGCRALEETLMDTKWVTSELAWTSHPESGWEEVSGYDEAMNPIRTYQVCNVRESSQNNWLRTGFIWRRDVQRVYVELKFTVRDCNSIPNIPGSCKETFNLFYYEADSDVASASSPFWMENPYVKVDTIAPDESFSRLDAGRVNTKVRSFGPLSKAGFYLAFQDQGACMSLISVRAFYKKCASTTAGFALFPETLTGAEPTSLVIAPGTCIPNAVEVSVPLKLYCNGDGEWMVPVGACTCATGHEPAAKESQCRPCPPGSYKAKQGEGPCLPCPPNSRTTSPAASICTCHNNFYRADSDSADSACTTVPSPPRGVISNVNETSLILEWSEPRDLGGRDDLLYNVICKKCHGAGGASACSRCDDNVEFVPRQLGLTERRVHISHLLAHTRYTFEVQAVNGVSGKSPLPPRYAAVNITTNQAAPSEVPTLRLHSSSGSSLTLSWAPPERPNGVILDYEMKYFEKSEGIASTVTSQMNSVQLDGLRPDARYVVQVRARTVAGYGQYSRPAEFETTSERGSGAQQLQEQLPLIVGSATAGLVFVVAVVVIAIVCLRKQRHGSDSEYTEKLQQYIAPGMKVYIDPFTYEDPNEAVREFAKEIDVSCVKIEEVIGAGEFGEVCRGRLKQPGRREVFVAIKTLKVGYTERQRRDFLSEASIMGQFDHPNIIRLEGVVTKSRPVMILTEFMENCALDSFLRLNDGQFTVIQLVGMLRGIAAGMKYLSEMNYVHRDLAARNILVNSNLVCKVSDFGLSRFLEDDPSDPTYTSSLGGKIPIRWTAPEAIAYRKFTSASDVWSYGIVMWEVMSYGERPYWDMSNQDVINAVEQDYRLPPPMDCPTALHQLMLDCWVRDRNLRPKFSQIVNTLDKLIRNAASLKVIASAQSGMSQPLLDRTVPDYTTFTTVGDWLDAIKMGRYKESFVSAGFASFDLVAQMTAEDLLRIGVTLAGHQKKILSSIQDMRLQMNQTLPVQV

CC(C)(C)n1nc(-c2ccc(Cl)cc2)c2c(N)ncnc21
IC50: 763 nM
